Reference: article PMC11727143, “Peptide-Mediated Transport Across the Intact Tympanic Membrane Is Intracellular, with the Rate Determined by the Middle Ear Mucosal Epithelium” (Biomolecules, 2024)

Tests used:
tympanic membrane (TM) [1] = assay: Titer of phage recovered from within the TM (homogenate) after one-hour application to the external TM surface; type: in vivo, Sprague Dawley rats; settings: 10^9 PFU in 10 μL PBS, six infected rats, PBS and 0.2 M glycine acid wash (pH 2.2), TM homogenized, titered on E. coli, mean of six
Description: Each peptide phage was applied to the external TM surface (10^9 PFU in 10 μL of PBS) of six previously infected rats, ensuring that the entire membrane surface was covered for one hour.

[2] = tested on: tympanic membrane (TM) cells; assay: Confocal imaging of immunolabeled phage within the tympanic membrane after one-hour application to the external TM surface in vivo; parameters: species or system Sprague Dawley rats
Description: Rodent cocktail (2.0 mg/kg xylazine and 40.0 mg/kg ketamine i.m.) was employed for anesthesia. The ME bulla was exposed via a ventral midline neck incision. A 25 g needle was used to make a small opening in the bullar bone, through which 5 × 10^4 CFUs of nontypeable Haemophilus influenzae (NTHi) type 3655 [20] was injected, in 50 μL of BHI media using a 30 g needle. Care was taken to avoid damaging the tympanic membrane, ossicles, or inner ear. Animals survived for 48 h to allow for an ME infection to develop, which was confirmed by TM visualization. Phages were then applied to the external TM surface in vivo for one hour in 10^9 PFUs ([…] forming units) in 10 μL of PBS, ensuring the entire surface of the membrane was covered.
For confocal microscopy, TMT3 and WT phages were employed. The animal was sacrificed, the phage solution removed, and the TM washed 3× with PBS to remove any remaining phage solution, then 2× with acid wash to remove phages bound to the TM, followed by 2× with PBS. The bulla was then dissected and opened, the interior TM surfaces were washed as above, and the TM was fixed in cold 4% PFA overnight. The TM was dissected from the annular bone and additionally washed 2× with PBS, and the manubrium of the malleus carefully removed. The membrane was incubated in tissue-penetration and blocking solution (5% Triton X and 10% fetal bovine serum (FBS) in PBS) for one hour at room temperature. The TMs were again washed 2× in PBS and incubated in primary antibody (M13 anti-phage coat protein, rabbit polyclonal antibody, Invitrogen PA1-26758, 1:100) overnight at 4 °C. TMs were washed 2× in PBS and incubated with a secondary antibody (FITC-labeled anti-rabbit, Jackson Immuno, 711-095-152) previously treated with DyLight 405 stain for enhanced visualization (Jackson Immuno 711-475-152) at 1:100 concentration for three hours at room temperature with light protection. TMs were again washed with PBS 2× and stained with DAPI (Novus NPB2-31156, 1:1000, 30 min at room temperature with light protection). Some TMs were also incubated with Texas Red-X Phalloidin (Invitrogen T7471, F-actin staining) at 1:500 concentration for one and one-half hours at room temperature and light protection to stain actin. After incubations, TMs were washed 2× with PBS and mounted with the external surface uppermost using antifade, hard-mount media (Vectashield, VectaLabs H-1400). Control TMs were exposed for 1 h to PBS in vivo and then identically treated.
The localization of the phage was evaluated via fluorescence confocal microscopy. TMs were imaged on a Leica SP8 Confocal with Lightning-adaptive deconvolution or an Olympus FV1000 Confocal with SIM Scanner, and 60× and 100× image stacks were generated for rendering of stained TMs. Image stacks were post-processed using Velocity high-performance software to generate images. Separate portions of the stacks were used to visualize phages in the external epithelium, the middle fibrous layer, and the inner mucosal epithelium.

tympanic membrane (TM) [3] = settings: recovery from ME lumen after one-hour application to external TM surface; cited from earlier work
Description: Each peptide phage was applied to the external TM surface (10^9 PFU in 10 μL of PBS) of six previously infected rats, ensuring that the entire membrane surface was covered for one hour. The phage solution was removed from the ex ...

[4] = NTHi-infected ME, 10^9 PFU in 10 μL PBS, one hour, confocal, ImageJ count

Sequence | phage titer recovered from within the TM (in words) (tympanic membrane (TM) [1]) | mean number of puncta per cell, external epithelium of the TM ([2]; NTHi-infected ME, 10^9 PFU in 10 μL PBS on external TM surface, one hour, anti-M13 immunolabel, confocal, ImageJ count, s.d. 43.1) [puncta per cell] | median number of puncta per cell, external epithelium of the TM [2, 4] [puncta per cell] | median number of puncta per cell, inner mucosal epithelium of the TM [2, 4] [puncta per cell] | mean number of puncta per cell, inner mucosal epithelium of the TM ([2]; NTHi-infected ME, 10^9 PFU in 10 μL PBS, one hour, confocal, ImageJ count, significantly less than external epithelium (p 0.002)) | phage content of the cells with the highest numbers (mucosal cells comparable to external epithelium) ([2]; one-hour application, confocal, ImageJ count) | presence of phage within TM cells by immunolabeling (in words) ([2]; one-hour incubation on the external canal TM surface, confocal imaging) | trans-TM transport rate (in words) (tympanic membrane (TM) [3])
SADSTKTTHLTL [TMT3] | higher than that of TMT3 (18)-1 | 139.2 | 110 | 23 | 42.9 (s.d. 44.8) puncta per cell | 200–250 puncta/cell | clearly intracellular and are restricted to the cell cytoplasm | high transport rate
TLSPKMPGGGYW [TMT2] | significantly higher than those of TMT3 | – | – | – | – | – | – | low transport rate
